Reference: patent US4281121A, “1,3,4-Thiadiazole-2-carboxylic acid derivatives, process for making the same and fungicidal and nematocidal compositions containing same” (Schering Aktiengesellschaft, priority 1978, dated 1981)

What was measured:
[1] = tested on: Tilletia caries; assay: Treatment of oat seeds infested with Tilletia caries (spore germination); format: in vivo
[2] = tested on: Botrytis cinerea; assay: Prophylactic leaf treatment of tomato plants against Botrytis cinerea; format: in vivo; settings: concentration of 0.025 of the active agent (unit not given)
[3] = tested on: Helminthosporium gram; settings: 50 g active agent per 100 kg; about 5 weeks
Protocol: Treatment of barley seeds infested with Helminthosporium gram
After emergence, the plants were subjected to illumination for 12 hours per day. After about 5 weeks the infested plants were counted and the total number of plants for each test were also counted. The active agents tested were used as pulverulent compositions.

[4] = tested on: Plasmopara viticola; assay: Prophylactic leaf treatment of grapevines in the hothouse against Plasmopara viticola; format: in vivo
Protocol: Effects of prophylactic leaf treatment of grapevines in the hothouse against Plasmopara viticola
Young grapevine plants having from 5 to 8 leaves were sprayed dripping wet with the concentrations of active agents stated in the table below. After drying of the spray deposit the leaves were sprayed with an aqueous suspension of sporangia of the fungus (about 20,000 per ml); the spraying was applied to the bottom side of the leaves. The plants were then immediately incubated in a hothouse at a temperature of 22° to 24° C. and at maximum water saturation in the atmosphere. Beginning with the second day the humidity of the air was reduced for 3 to 4 days to normal level (30 to 70% saturation) and was then maintained for another day on the level of full saturation. Subsequently, the percentage portion of the fungus infested surface of each leaf was noted and the average per treatment was calculated in order to determine the fungicidal activity. This was done on the basis of the following formula: [formula]
The active compounds were applied in the form of a 20% concentration spray powder.

[5] = tested on: Fusarium avenaceum; assay: Threshold concentration test in case of Fusarium avenaceum (infested soil, garden peas); format: in vivo; settings: for number of sound peas: 20 grains per dish, 18 days at 20-24° C.; for root evaluation (1-4): 18 days
Method in brief: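 Soil heavily infested with Fusarium avenaceum was mixed uniformly with a 20% powder formulation of active agent, then sown immediately with 20 garden pea seeds ('Wunder von Kelvedon') per dish. After 18 days in a greenhouse at 20° to 24° C., sound plants were counted and roots scored on a 1–4 scale.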

[6] = tested on: Pythium ultimum; assay: Threshold concentration test for use of the compounds against Pythium ultimum (infested soil, garden peas); format: in vivo; set-up: key to root evaluation (1-4): 4: white roots without fungous necrosis; 3: white roots, minor fungous necrosis; 2: brown roots, already more pronounced fungous necrosis; 1: heavy fungous necrosis, roots rotted; settings: for root evaluation (1-4): 3 weeks; for number of sound peas: 20 grains per dish, 3 weeks at 20-24° C.
Method in brief: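 Garden pea seeds, 20 per dish, went straight into Pythium ultimum-infested soil into which 20% pulverulent formulations had been uniformly blended. Sound plants counted and roots rated 1–4 after three weeks of hothouse growth at 20–24 °C.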

[7] = concentration of active agent 0.025 (unit not given)
[8] = concentration of active agent 0.005 (unit not given)

SMILES | % activity ([1]; 10 g active agent per 100 kg) [%] | % activity ([1]; 20 g active agent per 100 kg) [%] | % activity ([1]; 50 g active agent per 100 kg) [%] | % activity [2] [%] | % activity [3] [%] | % activity [4, 7] [%] | number of sound peas ([5]; 25 mg/l soil) | root evaluation (1-4) ([5]; 25 mg/l soil) | number of sound peas ([5]; 50 mg/l soil) | root evaluation (1-4) ([5]; 50 mg/l soil) | number of sound peas ([5]; 100 mg/l soil) | root evaluation (1-4) ([5]; 100 mg/l soil) | % activity [4, 8] [%] | root evaluation (1-4) ([6]; 20 mg/l soil) | number of sound peas ([6]; 20 mg/l soil) | root evaluation (1-4) ([6]; 40 mg/l soil) | number of sound peas ([6]; 40 mg/l soil) | root evaluation (1-4) ([6]; 80 mg/l soil) | number of sound peas ([6]; 80 mg/l soil) | % activity ([4]; concentration of active agent 0.001 (unit not given)) [%]
CCS(=O)(=O)c1nnc(C(=O)NC2CCCCCCC2)s1 [5-ethylsulfonyl-1,3,4-thiadiazole-2-carboxylic acid-cyclooctylamide] | 100 | 100 | 100 | 93 | 98 | – | – | – | – | – | – | – | – | – | – | – | – | – | – | –
CCCCCCCCNC(=O)c1nnc(S(=O)(=O)CC)s1 [5-ethylsulfonyl-1,3,4-thiadiazole-2-carboxylic acid-octylamide] | 91 | 93 | 98 | 87 | – | 90 | – | – | – | – | – | – | – | – | – | – | – | – | – | –
CCCCCCS(=O)(=O)c1nnc(C#N)s1 [5-hexylsulfonyl-1,3,4-thiadiazole-2-carbonitrile] | – | – | 90 | 86 | – | 90 | 19 | 4 | 19 | 4 | 19 | 4 | – | – | – | – | – | – | – | –
CCCCCCS(=O)(=O)c1nnc(C(N)=O)s1 [5-hexylsulfonyl-1,3,4-thiadiazole-2-carboxamide] | – | – | 98 | 87 | – | 90 | 7 | 1 | 12 | 2 | 15 | 3 | – | – | – | – | – | – | – | –
CCCCNC(=O)c1nnc([S+]([O-])CCC)s1 (centres unmarked) [5-propylsulfinyl-1,3,4-thiadiazole-2-carboxylic acid-butylamide] | – | 100 | 100 | 80 | – | 99.1 | – | – | – | – | – | – | 91 | – | – | – | – | – | – | –
CCC[S+]([O-])c1nnc(C(=O)N(C)C)s1 (centres unmarked) [5-propylsulfinyl-1,3,4-thiadiazole-2-carboxylic acid-dimethylamide] | – | 100 | 100 | 80 | 100 | – | – | – | – | – | – | – | – | 1 | 12 | 4 | 18 | 4 | 19 | –
CCCCCCNC(=O)c1nnc([S+]([O-])CCC)s1 (centres unmarked) [5-propylsulfinyl-1,3,4-thiadiazole-2-carboxylic acid-hexylamide] | – | 100 | 100 | 80 | – | 100 | – | – | – | – | – | – | 99.1 | – | – | – | – | – | – | 95
CCCS(=O)(=O)c1nnc(C(N)=O)s1 [5-propylsulfonyl-1,3,4-thiadiazole-2-carboxamide] | 100 | 100 | 100 | 94 | – | 95 | – | – | – | – | – | – | 89 | 1 | 12 | 4 | 19 | 4 | 17 | –
CCCS(=O)(=O)c1nnc(C(=O)N2CCC2)s1 [5-propylsulfonyl-1,3,4-thiadiazole-2-carboxylic acid-N,N-trimethyleneamide] | – | – | 100 | 87 | – | – | 11 | 2 | 17 | 3 | 17 | 3 | – | 1 | 6 | 4 | 19 | 4 | 18 | –
CCCNC(=O)c1nnc(S(=O)(=O)CCC)s1 [5-propylsulfonyl-1,3,4-thiadiazole-2-carboxylic acid-propylamide] | 99.5 | 99.7 | 100 | 80 | – | 93 | – | – | – | – | – | – | – | 1 | 10 | 4 | 16 | 4 | 16 | –
